Some results are limits rather than exact numbers.

A word on the EC50: it is the concentration that produces a half-maximal response. A word on the Kd: it is the concentration at which binding is half-saturated.

Series [1] deals with T1, Toll-like receptor 7 (Homo sapiens, UniProt Q9NYK1).
T1 sequence (Q9NYK1 whole entry): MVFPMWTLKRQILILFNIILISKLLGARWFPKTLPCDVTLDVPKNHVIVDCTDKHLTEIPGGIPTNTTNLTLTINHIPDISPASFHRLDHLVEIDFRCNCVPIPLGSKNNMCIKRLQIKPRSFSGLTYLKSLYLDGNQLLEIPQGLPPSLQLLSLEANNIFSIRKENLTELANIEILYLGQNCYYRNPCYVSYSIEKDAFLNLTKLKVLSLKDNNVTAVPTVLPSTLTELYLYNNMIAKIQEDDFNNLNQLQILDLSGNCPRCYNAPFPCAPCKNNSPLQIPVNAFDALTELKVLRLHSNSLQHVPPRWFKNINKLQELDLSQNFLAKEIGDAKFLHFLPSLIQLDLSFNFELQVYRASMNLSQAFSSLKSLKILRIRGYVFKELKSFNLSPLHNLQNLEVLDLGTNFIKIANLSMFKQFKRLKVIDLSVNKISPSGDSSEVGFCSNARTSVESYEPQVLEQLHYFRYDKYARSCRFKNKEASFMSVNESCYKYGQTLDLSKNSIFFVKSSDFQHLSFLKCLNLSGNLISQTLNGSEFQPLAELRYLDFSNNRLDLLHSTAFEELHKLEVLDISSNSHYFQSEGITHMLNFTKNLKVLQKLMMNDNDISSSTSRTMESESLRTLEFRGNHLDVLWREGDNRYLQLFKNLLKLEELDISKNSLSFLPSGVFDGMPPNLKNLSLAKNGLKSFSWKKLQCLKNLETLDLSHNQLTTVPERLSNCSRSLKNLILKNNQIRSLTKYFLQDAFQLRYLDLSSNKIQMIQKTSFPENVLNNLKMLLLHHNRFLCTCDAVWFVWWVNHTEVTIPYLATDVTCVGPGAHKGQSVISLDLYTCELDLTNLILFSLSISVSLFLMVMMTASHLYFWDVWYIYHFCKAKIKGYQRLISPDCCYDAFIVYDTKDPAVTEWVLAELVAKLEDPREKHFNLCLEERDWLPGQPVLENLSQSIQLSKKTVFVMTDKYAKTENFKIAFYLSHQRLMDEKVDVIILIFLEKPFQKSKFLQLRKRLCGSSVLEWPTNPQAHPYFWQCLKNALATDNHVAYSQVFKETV
Put plainly: Agonist activity at TLR7 in HEK-Blue hTLR7 cells expressing NF-kappaB/AP-1 inducible SEAP assessed as increase in SEAP activity incubated for 24 hrs by QUANTI-Blue assay. In kind it is cell-based.

The subject of a further series is L929. Description: Cytotoxicity against mouse L929 cells assessed as reduction in cell viability upto 100 uM incubated for 24 hrs by CCK-8 assay. The following applies: l929, 24 h. It is filed as toxicity, cell-based. On the technique in general: Formazan colour is commonly taken as a measure of viable cells.
A further series deals with L02. Put plainly: Cytotoxicity against human L02 cells assessed as reduction in cell viability upto 100 uM incubated for 24 hrs by CCK-8 assay. It is filed as toxicity, cell-based. The following applies: l02, 24 h.
Series [2] addresses T2, Toll-like receptor 7 (Mus musculus, UniProt P58681).
T2 sequence (P58681 whole entry): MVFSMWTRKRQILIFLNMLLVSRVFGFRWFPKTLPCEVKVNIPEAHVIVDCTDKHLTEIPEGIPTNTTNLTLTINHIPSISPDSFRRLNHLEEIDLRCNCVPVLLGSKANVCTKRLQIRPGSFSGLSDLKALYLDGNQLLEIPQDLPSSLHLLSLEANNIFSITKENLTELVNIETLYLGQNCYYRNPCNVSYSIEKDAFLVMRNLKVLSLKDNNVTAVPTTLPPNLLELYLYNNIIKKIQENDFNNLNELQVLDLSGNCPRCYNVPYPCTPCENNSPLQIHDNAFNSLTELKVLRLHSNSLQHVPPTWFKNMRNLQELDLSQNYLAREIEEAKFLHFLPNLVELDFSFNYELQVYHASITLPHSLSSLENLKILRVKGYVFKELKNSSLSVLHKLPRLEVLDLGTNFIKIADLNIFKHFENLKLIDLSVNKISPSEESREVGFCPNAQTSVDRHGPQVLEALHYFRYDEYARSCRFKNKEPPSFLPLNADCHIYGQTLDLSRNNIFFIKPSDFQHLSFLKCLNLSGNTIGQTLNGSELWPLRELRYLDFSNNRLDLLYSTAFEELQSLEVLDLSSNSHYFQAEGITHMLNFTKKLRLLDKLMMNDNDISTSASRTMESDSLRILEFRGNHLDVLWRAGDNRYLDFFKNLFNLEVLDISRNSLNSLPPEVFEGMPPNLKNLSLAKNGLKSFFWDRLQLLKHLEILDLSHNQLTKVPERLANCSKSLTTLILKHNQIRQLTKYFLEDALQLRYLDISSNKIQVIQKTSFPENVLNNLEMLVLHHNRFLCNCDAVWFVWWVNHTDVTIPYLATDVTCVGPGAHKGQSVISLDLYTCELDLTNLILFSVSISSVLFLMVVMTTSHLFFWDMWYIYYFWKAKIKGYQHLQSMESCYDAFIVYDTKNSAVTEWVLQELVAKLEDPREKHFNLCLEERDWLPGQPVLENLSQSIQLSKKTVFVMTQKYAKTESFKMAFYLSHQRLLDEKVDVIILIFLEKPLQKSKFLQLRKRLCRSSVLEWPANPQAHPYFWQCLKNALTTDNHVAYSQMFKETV
Description: Binding affinity to recombinant mouse TLR7 assessed as dissociation constant by SPR analysis. Background: In SPR one partner is held on a chip, and binding of the other changes the refractive index at the surface.

Series [3] is described as follows: Toxicity in C57BL/6J mouse implanted with mouse B16-F10 cells assessed as reduction in body weight at 2.5 to 20 mg/kg, ip administered every 2 days starting from 3 days post tumor inoculation and measured on day 18. The following applies: in vivo, 360 h, dose 2.5-20 mg/kg, time 15 day. It is filed as organism-based.
Series [4] is described as follows: Toxicity in C57BL/6J mouse implanted with mouse B16-F10 cells assessed as splenomegaly at 25 mg/kg, ip administered every 2 days starting from 3 days post tumor inoculation and measured on day 18. As to conditions: in vivo, 360 h, time 15 day. It is filed as organism-based.
The nature of series [5]: Toxicity in C57BL/6J mouse implanted with mouse B16-F10 cells assessed as increase in systemic TNF-alpha secretion in serum at 25 mg/kg, ip administered every 2 days starting from 3 days post tumor inoculation and measured on day 18 by ELISA. The following applies: in vivo, 360 h, time 15 day. In kind it is organism-based. (In general: An ELISA detects its analyte on a solid surface through an enzyme-linked reagent.)

Series [6] in a line: Toxicity in C57BL/6J mouse implanted with mouse B16-F10 cells assessed as increase in systemic IL-6 secretion in serum at 25 mg/kg, ip administered every 2 days starting from 3 days post tumor inoculation and measured on day 18 by ELISA. In kind it is organism-based. The following applies: in vivo, 360 h, time 15 day.
Series [7] can be described thus: Toxicity in C57BL/6J mouse implanted with mouse B16-F10 cells assessed as pathological changes in heart at 25 mg/kg, ip administered every 2 days starting from 3 days post tumor inoculation and measured on day 18 by H and E staining based analysis. In kind it is organism-based. As to conditions: in vivo, 360 h, time 15 day.
Series [8] in a line: Toxicity in C57BL/6J mouse implanted with mouse B16-F10 cells assessed as pathological changes in liver at 25 mg/kg, ip administered every 2 days starting from 3 days post tumor inoculation and measured on day 18 by H and E staining based analysis. It is filed as organism-based. The following applies: in vivo, 360 h, time 15 day.
A short description of series [9]: Toxicity in C57BL/6J mouse implanted with mouse B16-F10 cells assessed as pathological changes in kidney at 25 mg/kg, ip administered every 2 days starting from 3 days post tumor inoculation and measured on day 18 by H and E staining based analysis. It is filed as organism-based. The following applies: in vivo, 360 h, time 15 day.
A short description of series [10]: Toxicity in C57BL/6J mouse implanted with mouse B16-F10 cells assessed as physical abnormalities at 25 mg/kg, ip administered every 2 days starting from 3 days post tumor inoculation and measured on day 18. It is filed as organism-based. The following applies: in vivo, 360 h, time 15 day.
Series [11] in a line: Toxicity in C57BL/6J mouse implanted with mouse B16-F10 cells assessed as behavioral abnormalities at 25 mg/kg, ip administered every 2 days starting from 3 days post tumor inoculation and measured on day 18. The following applies: in vivo, 360 h, time 15 day. In kind it is organism-based.
For series [12], the system named is Peritoneal macrophage. Put plainly: Induction of M1 like macrophage polarization in mouse peritoneal macrophages assessed as increase in CD86-positive cells at 10 ug/ml incubated for 24 hrs by flow cytometry analysis (reference value: 18.4%). It is filed as functional. The following applies: dose 10 µg/ml.
Series [13] relates to Peritoneal macrophage. Description: Induction of M1 like macrophage polarization in mouse peritoneal macrophages assessed as decrease in CD206-positive cells at 10 ug/ml incubated for 24 hrs by flow cytometry analysis (reference value: 79%). In kind it is functional. Also on record: scale not given: the % may be the effect or the level left. The following applies: dose 10 µg/ml.

The test system of another series is B16-F10. Put plainly: Antitumor immunity against mouse B16-F10 cells implanted in C57BL/6J mouse assessed as increase in intracellular granzyme B level in tumor CD8-positive T cells at 25 mg/kg, ip administered every 2 days starting from 3 days post tumor inoculation and measured on day 18 by flow cytometry analysis (reference value: 14.5%). In kind it is functional. As to conditions: time 15 day.

On to `CCCCc1nc2c(N)nc3ccccc3c2n1Cc1ccc(OC)cc1`, for which the half-maximal effective concentration (EC50) at Toll-like receptor 7 [1] was above 20000 nM.
`CCCc1nc2c(N)nc3ccccc3c2n1Cc1ccc(C(=O)OC)cc1`: the EC50 on Toll-like receptor 7 [1] was above 20000 nM.
Same read-out and setting: the figure for `CCCCc1nc2c(N)nc3ccccc3c2n1Cc1ccc(C(=O)NC)cc1` is 226 nM.
In the case of `CCCCc1nc2c(N)nc3ccccc3c2n1CC1CCOC1` (stereo not given), the Activity result (in the series with L929; in the series with L02; in [3]; in series [4]; in series [5]; in series [6]) was “Non-Toxic” throughout. In addition, the Activity result in series [7], in [8], in series [9], in series [10] and in series [11] was “Non-Toxic” in each case. Moreover, the Kd at Toll-like receptor 7 [2] came to 47.2 nM.
Turning to `CCCCCc1nc2c(N)nc3ccccc3c2n1CC1CCOC1` (stereo not given), the EC50 at Toll-like receptor 7 [1] was determined as 525 nM.
On the same count and under the same terms, the value for `CCCc1nc2c(N)nc3ccccc3c2n1CC1CCOC1` (stereo not given) was 3280 nM.
As for `CCOCc1nc2c(N)nc3ccccc3c2n1CC(C)(C)O` [RESIQUIMOD], the Activity in the series on Peritoneal macrophage [12] worked out at 65.8%; in the series with Peritoneal macrophage [13], 29.8%; in the series with B16-F10 it was 49.9%.

The values are drawn from ChEMBL document CHEMBL5518200, “Heterocyclic-Modified Imidazoquinoline Derivatives: Selective TLR7 Agonist Regulates Tumor Microenvironment against Melanoma” (J Med Chem, 2024).
